Experimental data published in ChEMBL document CHEMBL2439978, “Perindopril and ramipril phosphonate analogues as a new class of angiotensin converting enzyme inhibitors” (Bioorg Med Chem, 2013).
pIC50: −log10 of the molar value.

How the values were obtained:
[1] = target: T1, Angiotensin-converting enzyme (Homo sapiens, UniProt P12821); assay: Inhibition of recombinant human ACE using (7-methoxycoumarin-4-yl)acetyl-Arg-Pro-Pro-Gly-Phe-Ser-Ala-Phe-Lys(2,4-dinitrophenyle)-OH as substrate after 30 mins by fluorescence assay
T1 sequence (P12821 whole entry): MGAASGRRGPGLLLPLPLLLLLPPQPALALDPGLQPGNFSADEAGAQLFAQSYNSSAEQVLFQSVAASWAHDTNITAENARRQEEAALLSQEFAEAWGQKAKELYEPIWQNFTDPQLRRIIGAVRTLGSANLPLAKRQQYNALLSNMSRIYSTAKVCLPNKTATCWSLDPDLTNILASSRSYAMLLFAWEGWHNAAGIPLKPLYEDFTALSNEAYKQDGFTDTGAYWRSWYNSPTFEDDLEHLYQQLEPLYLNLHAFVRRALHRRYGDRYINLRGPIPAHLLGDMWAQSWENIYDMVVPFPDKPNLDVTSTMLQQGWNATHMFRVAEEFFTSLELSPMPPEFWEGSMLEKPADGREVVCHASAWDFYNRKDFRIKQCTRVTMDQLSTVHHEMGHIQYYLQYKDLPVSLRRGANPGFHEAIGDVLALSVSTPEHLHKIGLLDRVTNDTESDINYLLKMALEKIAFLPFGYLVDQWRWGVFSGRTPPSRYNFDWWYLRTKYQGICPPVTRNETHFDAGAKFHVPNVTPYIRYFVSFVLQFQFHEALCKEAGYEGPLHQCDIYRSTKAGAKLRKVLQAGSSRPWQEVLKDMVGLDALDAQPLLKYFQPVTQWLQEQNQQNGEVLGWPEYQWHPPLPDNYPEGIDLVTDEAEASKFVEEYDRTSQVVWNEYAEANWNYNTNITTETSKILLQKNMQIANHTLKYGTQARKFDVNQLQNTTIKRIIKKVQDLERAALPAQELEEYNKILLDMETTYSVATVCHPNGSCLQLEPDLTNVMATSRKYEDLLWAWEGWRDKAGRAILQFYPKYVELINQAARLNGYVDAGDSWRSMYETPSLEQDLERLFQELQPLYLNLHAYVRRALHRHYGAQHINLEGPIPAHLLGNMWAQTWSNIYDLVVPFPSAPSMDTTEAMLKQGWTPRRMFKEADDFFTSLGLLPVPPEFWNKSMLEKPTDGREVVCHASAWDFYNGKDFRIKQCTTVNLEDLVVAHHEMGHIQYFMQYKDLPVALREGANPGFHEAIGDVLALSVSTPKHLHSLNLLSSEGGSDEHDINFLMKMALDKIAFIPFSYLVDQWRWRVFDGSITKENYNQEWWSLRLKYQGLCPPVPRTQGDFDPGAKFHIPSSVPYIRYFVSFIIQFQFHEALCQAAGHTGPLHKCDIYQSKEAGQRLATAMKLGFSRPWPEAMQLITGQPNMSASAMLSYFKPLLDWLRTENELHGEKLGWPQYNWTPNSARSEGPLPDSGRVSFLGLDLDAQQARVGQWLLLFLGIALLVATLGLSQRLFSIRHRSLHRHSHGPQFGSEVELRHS

[2] = target: T1, Angiotensin-converting enzyme; assay: Inhibition of ACE (unknown origin)

SMILES	pIC50 [1]	pIC50 [2]
CCCC(N[C@@H](C)C(=O)N1[C@H](C(=O)O)C[C@@H]2CCCC[C@@H]21)P(=O)(O)O (stereo partly drawn)	7.52	
C[C@H](NC(CCc1ccccc1)P(=O)(O)O)C(=O)N1[C@H](C(=O)O)C[C@@H]2CCCC[C@@H]21 (stereo partly drawn)	7.40	
CCC[C@H](N[C@@H](C)C(=O)N1[C@H](C(=O)O)C[C@@H]2CCCC[C@@H]21)C(=O)OCC [PERINDOPRIL]		8.82
